Where “and” joins values, the source holds several entries; their conditions need not be identical. Equal entries are not always repeated.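 How tested: cells in 96-well plates exposed to compound for 48 hours at five concentrations. GI50 = concentration required for 50% inhibition of growth. At the TGI there is no net growth.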
What was measured:
Assay in all cases: NCI tumour cell line growth inhibition, 48 h
SK-MEL-28 melanoma = system: SK-MEL-28 melanoma
NCI-H522 lung = system: NCI-H522 lung
NCI/ADR-RES ovarian = system: NCI/ADR-RES ovarian
786-0 renal = system: 786-0 renal
T-47D breast = system: T-47D breast
A498 renal = system: A498 renal
HCT-15 colon = system: HCT-15 colon
SK-MEL-2 melanoma = system: SK-MEL-2 melanoma
PC-3 prostate = system: PC-3 prostate
OVCAR-3 ovarian = system: OVCAR-3 ovarian

Row | SMILES | GI50 (SK-MEL-28 melanoma) [µM] | TGI (SK-MEL-28 melanoma) | GI50 (NCI-H522 lung) [µM] | TGI (NCI-H522 lung) | GI50 (NCI/ADR-RES ovarian) | TGI (NCI/ADR-RES ovarian) | GI50 (786-0 renal) | TGI (786-0 renal) | GI50 (T-47D breast) [µM] | TGI (T-47D breast) | GI50 (A498 renal) [µM] | TGI (A498 renal) | GI50 (HCT-15 colon) [µM] | TGI (HCT-15 colon) | GI50 (SK-MEL-2 melanoma) | TGI (SK-MEL-2 melanoma) | GI50 (PC-3 prostate) [µM] | TGI (PC-3 prostate) | GI50 (OVCAR-3 ovarian) | TGI (OVCAR-3 ovarian)
1 | CCCCCCCCCCCCCCNC(=O)Nc1ccc(Cl)c(Cl)c1 | 3.7 | > 100 µM | 1.66 | 5.75 µM | 3.02 µM | > 28.4 µM | 2.79 µM | > 23.4 µM | 3.17 | > 30 µM | 2.13 | > 26.4 µM | 3.21 | > 100 µM | 1.93 µM | 5.69 µM | 2.67 | > 37.1 µM | 2.47 µM | 6.31 µM
2 | CCCCCCCCCCCC[C@@H](O)[C@H]1CC[C@H]([C@H](O)CC[C@H](O)[C@@H]2CC[C@@H](CCCCCCCC3=C[C@H](C)OC3=O)O2)O1 | 3.37 | > 50 µM | – | > 50 µM | 2.12 µM | > 50 µM | 6.4 µM | > 50 µM | 4.45 | > 50 µM | – | > 50 µM | 5.07 | > 50 µM | – | > 50 µM | 3.3 | > 50 µM | 2.78 µM | > 50 µM
3 | C=C(CN1CCc2[nH]c3ccc(F)cc3c2C1)c1ccc(C(=O)Nc2ccccc2N)cc1 | 3.54 | 26.2 µM | 0.316 | 1.35 µM | 0.621 µM | 11.3 µM | 0.56 µM | 3.59 µM | 3.76 | 87.8 µM | 1.5 | 4.62 µM | 3.17 | 12.6 µM | 1.07 µM | 8.14 µM | 4.32 | 52.3 µM | 2.08 µM | 6.84 µM
4 | CCC(c1ccccc1)c1noc(CCN(CC)CC)n1 (centres undefined) | 26.7 | > 73.2 µM | 2.98 | 9.09 µM | 39.1 µM | > 100 µM | 34.4 µM | > 100 µM | 13.1 | 76.2 µM | > 81.9 | > 100 µM | 19.2 | > 62.3 µM | 24.7 µM | 67.7 µM | 49.6 | > 100 µM | 25.3 µM | > 56.2 µM
5 | COc1ccc(-c2[nH]c3ccc(OC)cc3c2C=C(C#N)C#N)cc1 | 1.66 | > 100 µM | > 100 | > 100 µM | 0.389 µM | > 100 µM | 14.3 µM | > 100 µM | 2.57 | > 100 µM | 0.075 | 3.97 µM | 0.766 | > 100 µM | 5.85 µM | > 100 µM | 0.342 | > 100 µM | 0.364 µM | 1.9 µM
6 | CC(=O)O[C@H]1CC2C(C3CC[C@H](C(C)CCC(=O)O)[C@]31C)[C@H](OC(C)=O)C[C@@H]1CC3(CC[C@]21C)OOC1(CCC(C)CC1)OO3 (some centres undefined) | – | 11.8 µM and 13.2 µM | – | 12.3 µM and 3.48 µM | 4.88 µM and 2.02 µM | 18.3 µM and 4.53 µM | 7.66 µM and 1.81 µM | 20.3 µM and 3.81 µM | – | 14.1 µM and 8.75 µM | – | 28.6 µM and 29.8 µM | – | 13.9 µM and 7.4 µM | 10.7 µM and 2.02 µM | 27.2 µM and 5 µM | – | 17.2 µM and 14.2 µM | 4.65 µM and 2.13 µM | 16.4 µM and 5.44 µM
7 | NC(N)=NCCCC(NCc1c2ccccc2nc2ccccc12)C(=O)O (centres undefined) | – | > 100 µM | – | 69.9 µM | – | > 100 µM | – | > 100 µM | – | > 100 µM | – | > 100 µM | – | > 100 µM | – | > 100 µM | – | > 100 µM | – | > 100 µM
8 | COc1ccc(/C=C2\CCC/C(=C\c3ccc(OC)c(OC)c3)C2=O)cc1OC | 16.7 | > 32.5 µM | 2.19 | 15.4 µM | 1.18 µM | 17.5 µM | 5.59 µM | > 32.5 µM | 10.2 | > 32.5 µM | 3.88 | > 32.5 µM | 4.96 | > 32.5 µM | 5.02 µM | 15.2 µM | 2.83 | > 32.5 µM | 2.17 µM | > 32.5 µM
9 | S=C1SCN(Cc2ccccc2)CN1Cc1ccco1 | 5.75 | 20.1 µM | 2.59 | 9.92 µM | 17.9 µM | > 100 µM | 3.5 µM | 14.4 µM | 3.41 | 21.9 µM | 21.6 | 69.7 µM | 2.95 | 14.4 µM | 3.04 µM | 11.9 µM | 5.75 | 61.6 µM | 3.98 µM | 15 µM
10 | CCCCCC(=O)O[C@]1(C(C)=O)CCC2C3CCC4=CC(=O)CC[C@]4(C)C3CC[C@@]21C (some centres undefined) | 2.49 | 6.82 µM | 1.88 | 5.63 µM | 2.11 µM | 8.42 µM | 2.71 µM | 8.73 µM | 3.77 | 25.7 µM | 1.3 | 3.88 µM | 3.22 | 12.6 µM | 2.87 µM | 7.73 µM | 1.64 | 8.52 µM | 1.9 µM | 3.9 µM
11 | COC12C(COC(=O)NCCO)C3=C(C(=O)C(C)=C(N)C3=O)N1CC1NC12 (centres undefined) | – | > 264 µM | 36.1 | 33.5 µM and 99.6 µM | – | > 264 µM | 41 µM | > 264 µM | – | > 264 µM | – | 122 µM | – | > 264 µM | – | 79.9 µM and 75.5 µM | – | 248 µM | 56.2 µM | 141 µM
12 | Cc1cnc(C(=O)NNc2nc3sc4c(c3c(=O)[nH]2)C(C)CCC4)cn1 (centres undefined) | 1.37 | 29.6 µM | 2.97 | > 100 µM | 1.78 µM | 10.4 µM | 1.56 µM | 13.5 µM | 2.75 | > 100 µM | 2.84 | 16.8 µM | 0.411 | 23.6 µM | 6.64 µM | 37.4 µM | 2.08 | 66.6 µM | 0.506 µM | 17.1 µM
13 | [O]=[V]([OH])([OH])[OH] | > 100 | > 100 µM | > 100 | > 100 µM | > 100 µM | > 100 µM | > 100 µM | > 100 µM | > 100 | > 100 µM | > 100 | > 100 µM | > 100 | > 100 µM | > 100 µM | > 100 µM | > 100 | > 100 µM | > 100 µM | > 100 µM
